# From patent US20220183287A1, “METHODS FOR KILLING PESTS” (The United States of America, as represented by the …, priority 2020, published 2022)
# Several values for one entry are separate records, joined by “and”; a condition that tells them apart may be missing. Identical values can stand only once. Marks after values point to notes of the source that are not given here.
# System: M. incognita second-stage juveniles
# Test: Microwell assay: previously hatched J2 immersed in compounds, activity and viability
# Conditions: 0.1%; after Day 2 water rinse
# Method: Nematode cultures: As described in Meyer et al. (Meyer, S. L. F., et al., Nematropica, 46: 85-96 (2016)), M. incognita race 1 (originally isolated in Maryland) was maintained in a greenhouse (24° to 29° C.; natural and supplemental lighting combined for a 16-h daylength) on susceptible cayenne pepper (Capsicum annuum) TA-136′ plants. All greenhouse experiments described herein were conducted under the same conditions. Two to three months after pepper plant inoculation, egg masses were picked from roots. Eggs were separated by 5 min immersion in 0.6% sodium hypochlorite, followed by a rinse in sterile distilled water (SDW). To collect second-stage juveniles (J2) for microwell assays, the surface-sterilized eggs were placed in a hatching chamber (Spectra/Mesh Nylon Filter, openings 25-μm-diam.; Spectrum Laboratories Inc., Rancho Dominguez, Calif.) set in an autoclaved dish that was placed on a rotary shaker for 3 days at 35 rpm. For some M. incognita and H. glycines assays, 25 or […] kanamycin monosulfate (Phytotechnology Laboratories, Shawnee Mission, Kans.) was added to the hatching chamber to prevent growth of bacteria. The collected J2 were then rinsed with water to remove the kanamycin monosulfate.
# (§1) Compounds for the studies were purchased from three different companies: methyl benzoate, CAS Number 93-58-3, ≥99% purity; Tween 20, CAS Number: 9005-64-5; Tween 80, CAS Number: 9005-65-6; ethyl benzoate, CAS Number: 93-89-0, natural, ≥99% purity, FCC, FG; vinyl benzoate, CAS Number: 769-78-8, ≥99% purity; n-propyl benzoate, CAS Number: 2315-68-6, 99% purity; n-butyl benzoate, CAS Number: 136-60-7, 99% purity; benzyl benzoate, CAS Number: 120-51-4, natural, ≥99% purity, FCC, FG; methyl 2-methylbenzoate, CAS Number: 89-71-4, 99% purity; methyl 2-chlorobenzoate, CAS Number: 610-96-8, ≥98% purity; methyl 2-methoxybenzoate, CAS Number: 606-45-1, 99% purity and methyl 2-nitrobenzoate, CAS Number: 606-27-9, 98% purity were purchased from Sigma-Aldrich (St. Louis, Mo.). Compounds, iso-butyl benzoate, CAS Number 120-50-3, >98% purity; n-pentyl benzoate, CAS Number: 2049-96-9, ≥98% purity; and n-hexyl benzoate, CAS Number: 6789-88-4, ≥98% purity were purchased from Alfa Aesar (Tewksbury, Mass.). The compounds methyl 3-methoxybenzoate (methyl m-anisate), CAS Number: 5368-81-0; 97% and methyl 3-methylbenzoate (methyl m-toluate), CAS Number: 99-36-5, 97% purity were purchased from TCI America (Portland, Oreg.). All chemicals were used without further purification. Deionized water (DI) containing 1% emulsifier (v/v), Tween 20 and Tween 80, at 1:1 ratio was used to make different VOCs (volatile organic compounds) water solutions and also used as blank control.
# (§2) For tests with individual compounds, the concentration of each compound was 0.1% before placement into wells; the final concentration in the wells was 0.095% after addition to eggs or J2 suspended in water. These are reported as 0.1% herein. An exception was Trial 2, M. incognita J2 activity and viability (Table 2): the final concentration was 0.1% after placement in wells. Low concentrations were selected for assays of combined compounds to determine if the combinations would increase nematotoxicity.
# (§3) Laboratory assays were conducted in 96-well polystyrene plates following general procedures described in Wen et al. (2019). Each well received approximately 35 J2 (for previously hatched J2 assays) or 35 eggs that each contained either a first-stage juvenile (J1) or a J2. The plates were covered with plastic adhesive sealing film (Excel Scientific, Inc., Victorville Calif.) and then with the plate lids. Parafilm (Bemis, Neenah, Wis.) was used to seal the plates. The nematodes were then incubated at 26° C. […] Following the counts on Day 2, the treatments were removed and the J2 rinsed twice with SDW and incubated in the second rinse. […] Two trials were conducted for each assay.
row,SMILES,% Viable Day 3 rinsed
1,"O=C(OCc1ccccc1)c1ccccc1 [BB, Benzyl benzoate]",did not show a significant difference

# Same assay, conditions: 0.1%; previously hatched J2 in aqueous solution
SMILES,% Active Day 1,% Active Day 2
"O=C(OCc1ccccc1)c1ccccc1 [BB, Benzyl benzoate]",83.2 ^a %,83.1 ^a %
"COC(=O)c1ccccc1C [M2MB, Methyl 2-methylbenzoate]",2.5 ^e %,0 ^d %
"COC(=O)c1cccc(OC)c1 [M3MOB, Methyl 3-methoxybenzoate]",0 ^f %,0 ^d %
"CCCCOC(=O)c1ccccc1 [nBB, n-Butyl benzoate]",14.8 ^cd %,5.8 ^c %

# Same assay, conditions: Meloidogyne incognita, 72 h, read-out: % Viable Day 3 rinsed
row,SMILES,viability at 0.1 % [%]
1,"O=C(OCc1ccccc1)c1ccccc1 [BB, Benzyl benzoate]",79.9
2,"COC(=O)c1ccccc1C [M2MB, Methyl 2-methylbenzoate]",0
3,"COC(=O)c1cccc(OC)c1 [M3MOB, Methyl 3-methoxybenzoate]",0
4,"CCCCOC(=O)c1ccccc1 [nBB, n-Butyl benzoate]",2.9

# Same assay, conditions: Meloidogyne incognita, 72 h, read-out: nonviable (killed) J2
row,SMILES,mortality at 0.1 % [%]
1,"COC(=O)c1ccccc1C [M2MB, Methyl 2-methylbenzoate]",100
2,"COC(=O)c1cccc(OC)c1 [M3MOB, Methyl 3-methoxybenzoate]",100

# Same assay, conditions: in vivo
row,SMILES,nonviable (killed) J2
1,"CCCCOC(=O)c1ccccc1 [nBB, n-Butyl benzoate]",killed most of the J2

# System: M. incognita eggs
# Test: Microwell assay: eggs immersed in compounds, hatch and activity of hatched J2
# Assay type: in vivo, Meloidogyne incognita
# Conditions: 0.1%; J2 hatched from immersed eggs
# Method: (§4) All chemicals were used without further purification.
# (§5) These are reported as 0.1% herein.
# (§6) The nematodes were then incubated at 26° C. […] Two trials were conducted for each assay.
# (§7) The assumptions of the model were checked.
SMILES,% Active Day 2,% Active Day 5,% Active Day 7
"O=C(OCc1ccccc1)c1ccccc1 [BB, Benzyl benzoate]",67.0 ^ab %,33.5 ^cd %,24.8 ^b %
"COC(=O)c1ccccc1C [M2MB, Methyl 2-methylbenzoate]",45.3 ^ab %,11.8 ^d %,17.4 ^b %
"COC(=O)c1cccc(OC)c1 [M3MOB, Methyl 3-methoxybenzoate]",0 ^c %,0 ^e %,0 ^c %
"CCCCOC(=O)c1ccccc1 [nBB, n-Butyl benzoate]",17.1 ^b %,0 ^e %,0% and 0 ^c %

# Same assay, conditions: 0.1%; hatched J2 per well, about 35 eggs per well
SMILES,Hatch Day 2,Hatch Day 5,Hatch Day 7
"O=C(OCc1ccccc1)c1ccccc1 [BB, Benzyl benzoate]",2.6 ^cd,4.2 ^cde,4.1 ^de
"COC(=O)c1ccccc1C [M2MB, Methyl 2-methylbenzoate]",4.3 ^cd,6.6 ^bcd,7.6 ^cd
"COC(=O)c1cccc(OC)c1 [M3MOB, Methyl 3-methoxybenzoate]",2.0 ^cd,2.7 ^de,2.8 ^de
"CCCCOC(=O)c1ccccc1 [nBB, n-Butyl benzoate]",3.3 ^cd,4.1 ^cde,4.6 ^de

# System: H. glycines second-stage juveniles
# Test: Microwell assay: previously hatched J2 immersed in compounds, activity and viability
# Conditions: 0.1%; Day 3 following water rinse
# Method: The isolate of H. glycines race 3, originally isolated in Maryland, was maintained on soybean (Glycine max cv. ‘Essex’). As previously described (Wen, Y., et al. Plant Disease, 103: 2191-2198 (2019)), the roots were gently rubbed in water to dislodge cysts and mature females. The egg suspensions were then poured through nested sieves (#20 over /#60; pore sizes 850 μm and 250 μm diam., respectively) into a 454 g/liter sucrose solution. After 15 min, the cysts and females and cysts that floated to the top were collected, rinsed in water, and crushed with a rubber stopper on a #60 sieve (250-μm diam. pore size) that was partially submerged in distilled water. The egg suspension was washed through nested #230 over #500 sieves (pore sizes 63 μm and 25-μm diam., respectively). The eggs were collected in distilled water, and J2 hatched as described above.
# as §1, §2, §3
# Statistical analyses: The data were analyzed as either a general linear model using JMP or a generalized linear model for the best distribution to fit the residual using Proc Glimmix (Sas Institute). The assumptions of the model were checked. If not met, then appropriate statistical techniques were used so that data could met the assumptions of the models. In Sas, mean comparisons were done with Sidak adjusted p-values to hold the experiment-wise error at 0.05.
row,SMILES,reduction in % viable J2 compared with the Tween control [%]
1,"O=C(OCc1ccccc1)c1ccccc1 [BB, Benzyl benzoate]",33

# Same assay, conditions: 0.1%; previously hatched J2 in aqueous solution
SMILES,% Active Day 1,% Active Day 2
"O=C(OCc1ccccc1)c1ccccc1 [BB, Benzyl benzoate]",66.4 ^bc %,60.1 ^abc %
"COC(=O)c1ccccc1C [M2MB, Methyl 2-methylbenzoate]",50.4 ^c %,52.7 ^bc %
"COC(=O)c1cccc(OC)c1 [M3MOB, Methyl 3-methoxybenzoate]",12.2 ^d %,10.4 ^g %
"CCCCOC(=O)c1ccccc1 [nBB, n-Butyl benzoate]",52.7 ^c %,24.2 ^ef %

# Same assay, conditions: Heterodera glycines, 72 h, read-out: % Viable Day 3 rinsed
row,SMILES,viability at 0.1 % [%]
1,"O=C(OCc1ccccc1)c1ccccc1 [BB, Benzyl benzoate]",41.2
2,"COC(=O)c1ccccc1C [M2MB, Methyl 2-methylbenzoate]",46.4
3,"COC(=O)c1cccc(OC)c1 [M3MOB, Methyl 3-methoxybenzoate]",11.1
4,"CCCCOC(=O)c1ccccc1 [nBB, n-Butyl benzoate]",26.3

# System: Heterodera glycines eggs
# Test: Microwell assay: eggs immersed in compounds, hatch and activity of hatched J2
# Assay type: in vivo
# Conditions: 0.1%; J2 hatched from immersed eggs
# Method: as §4, §5, §6, §7
SMILES,% Active Day 2,% Active Day 5,% Active Day 7
"O=C(OCc1ccccc1)c1ccccc1 [BB, Benzyl benzoate]",15.2 ^cd %,17.0 ^cde %,13.5 ^bc %
"COC(=O)c1ccccc1C [M2MB, Methyl 2-methylbenzoate]",23.8 ^cd %,24.3 ^cde %,30.9 ^ab %
"COC(=O)c1cccc(OC)c1 [M3MOB, Methyl 3-methoxybenzoate]",0 ^e %,0 ^f %,6.9 ^bc %
"CCCCOC(=O)c1ccccc1 [nBB, n-Butyl benzoate]",3.6 ^d %,9.2 ^de %,8.8 ^bc %

# Same assay, conditions: 0.1%; hatched J2 per well, about 35 eggs per well
SMILES,Hatch Day 2,Hatch Day 5,Hatch Day 7
"O=C(OCc1ccccc1)c1ccccc1 [BB, Benzyl benzoate]",4.1 ^cd,4.5 ^cd,4.6 ^cd
"COC(=O)c1ccccc1C [M2MB, Methyl 2-methylbenzoate]",6.6 ^bcd,7.6 ^bcd,7.4 ^bcd
"COC(=O)c1cccc(OC)c1 [M3MOB, Methyl 3-methoxybenzoate]",6.3 ^bcd,6.4 ^bcd,6.0 ^cd
"CCCCOC(=O)c1ccccc1 [nBB, n-Butyl benzoate]",5.2 ^cd,5.6 ^cd,5.4 ^cd

# Same assay, conditions: Heterodera glycines, 168 h; 0.1%; Day 7; read-out: egg hatch suppression compared with the Tween control
row,SMILES,pest or weed control at 0.1 % [%]
1,"O=C(OCc1ccccc1)c1ccccc1 [BB, Benzyl benzoate]",64 to 80
2,"COC(=O)c1cccc(OC)c1 [M3MOB, Methyl 3-methoxybenzoate]",64
3,"CCCCOC(=O)c1ccccc1 [nBB, n-Butyl benzoate]",64 to 80

# System: Caenorhabditis elegans
# Test: not given
# Conditions: produced by Bacillus nematocida; cited from earlier work
row,SMILES,nematode attraction
1,"O=C(OCc1ccccc1)c1ccccc1 [BB, Benzyl benzoate]",nematode attractant

# System: X americanum adults
# Test: not given
# Conditions: in vivo; cited from earlier work
row,SMILES,toxicity to adults
1,"CC(=O)c1c(O)cc(O)c(C(C)=O)c1O [DAPG, 2,4-diacetylphloroglucinol]",toxic

# System: M. incognita
# Test: not given
# Conditions: in vivo; cited from earlier work
row,SMILES,egg hatch
1,"CC(=O)c1c(O)cc(O)c(C(C)=O)c1O [DAPG, 2,4-diacetylphloroglucinol]",decreased egg hatch

# System: C. elegans
# Test: not given
# Conditions: during the first hours of incubation; cited from earlier work
row,SMILES,hatch
1,"CC(=O)c1c(O)cc(O)c(C(C)=O)c1O [DAPG, 2,4-diacetylphloroglucinol]",stimulated hatch
